Source: US20230121771A1, “A PHARMACEUTICAL COMBINATION OF AN ARTEMISININ COMPOUND, 5-AMINOLEVULINIC ACID OR METHYL-5-AMINOLEVULINIC ACID AND A CHEMOTHERAPEUTIC AGENT” (JLP Health GmbH, priority 2020, published 2023)

Key:
Assay type in all cases: cell-based
[1] = test system: human primary glioblastoma cell lines; assay: Survival of artemisinin treated primary human glioblastoma cells upon 5-ALA (CellTiter-Glo, 72 h); details: three independently derived human primary glioblastoma cell lines
Method: […] Cell viability was assessed using automated cell counting (high-throughput flow cytometry), Alamar Blue staining (Invitrogen, DAL1100) or CellTiter-Glo Luminescent Assay (Promega, G7570, according to the manufacturer’s protocol) respectively.

[2] = test system: murine and human cancer cell lines; assay: Cell viability of artemisinin treated cancer cell lines in presence and absence of 5-ALA (Alamar Blue, 48 h); details: 4T1, Mcf7, B16F10, 5-ALA 0.5 mM
Method: For dosage responses, cells were seeded in 96-wells (25.000/ 96-well, in triplicate -where indicated) and subjected to compounds for 48 h. Cell viability was assessed using automated cell counting (high-throughput flow cytometry), Alamar Blue staining (Invitrogen, DAL1100) or CellTiter-Glo Luminescent Assay (Promega, G7570, according to the manufacturer’s protocol) respectively.

[3] = test system: Jurkat cells; assay: JC-1 staining of mitochondrial membrane potential; details: 48 h, artemisinin 0.5 µM, 5-ALA 0.25 mM
Method: Cells were collected, washed with 1xPBS, incubated with 2 µM JC-1 in 1PBS (MitoProbe JC-1 Assay Kit-1, Invitrogen, M34152) for 35 min at 37° C., washed twice, and analysed using flow cytometry in the red (PE channel) and green (FITC channel) fluorescence spectrum.

[4] = test system: neuroblastoma cells (SHSY5Y), Jurkat and HL-60 cells; assay: ROS levels by Dihydroethidium (DHE) staining and flow cytometry in cell lines; details: SHSY5Y and Jurkat cells; artemisinin 0.5 µM, 5-ALA 0.25 mM
Method: Treated cells were collected, washed with 1x HBSS (without Ca2+ and Mg2+), incubated with 1mM DHE (Dihydroethidium (Hydroethidine), Invitrogen, D11347) in 1x HBSS for 45 min at 37° C., washed twice and counterstained with DAPI or a viability dye (eBioscience™ Fixable Viability Dye eFluor™ 780, 65-0865-18) for 10 min on ice. Cells were then collected, strained and analysed using flow cytometry for DHE in the red fluorescent spectrum (PE channel).

[5] = test system: human cerebral tumor organoids (CNS-PNET); assay: Compound profiling in CNS-PNET cerebral tumor organoids (GFP-positive tumor cells)
Method: Tumor initiation was induced by either oncogene amplification, using a Sleeping Beauty (SB) transposase, or mutation of tumor suppressor genes, using the CRISPR-Cas9 system in day 10 old embryoid bodies (EBs). Plasmids carrying the transposase as well as GFP and the desired oncogenes or expressing Cas9 nuclease were introduced by electroporation. In brief, a mixture of 1 μg DNA and 100 μl nucleofector solution was added to 10 EBs and transferred to a nucleofection cuvette. The Lonza Nucleofector 2b and the A-023 program were used for electroporation/ nucleofection. Thereafter, EBs were transferred into 10 cm dishes containing differentiation media containing vitamin A and embedded into Matrigel 24 hours later. Two different types of tumors were initiated {Bian:2018gs}: Central nervous system primitive neuroectodermal tumors (CNS-PNET) were induced by the overexpression of Myc. Glioblastoma-like tumor group 2 (GBM-2) was caused by mutagenesis of the tumor suppressor genes p53, NF1 and PTEN. All plasmids were designed by Shan Bian {Bian, S. et al. Genetically engineered cerebral organoids model brain tumor formation. Nat. Methods 15, 631-639 (2018)}. Cerebral tumor organoids were treated with different compounds and the survival and growth of transformed as well as untransformed neurons was monitored. Fluorescence labeling of tumor cells allowed clear distinguishability of transformed cells as compared to non-labeled throughout the experiment using brightfield microscopy, as well as fluorescence imaging. The transformed tumor tissue and untransformed neurons within the same organoid was monitored using fluorescence imaging, as well as brightfield microscopy throughout the experiment. At the endpoint of the treatment (d5 or d7 respectively), the number of GFP-positive cells was assessed by flow cytometry. Cerebral (tumor) organoids were enzymatically and mechanically dissociated using 1x trypsin, 35-45 min incubation at 37° C., and gentle shaking. […] Single cells in suspension were counterstained with DAPI or a viability dye (eBioscienceTM Fixable Viability Dye eFluorTM 780, 65-0865-18), and analysed using flow cytometry (BD LSRFortessa HTS Cell Analyzer). The amounts of GFP-positive cells were analyzed. […] Brightfield and green fluorescence images were taken from the same area. Additionally, for image analyses, the Celldiscoverer 7 (Zeiss), a fully integrated high-end automated live cell imaging system, was used. Cerebral organoids were fixed in 4% PFA (room temperature, 1 h), incubated with 30% sucrose (4° C., o/n), OCT (Tissue-tek OCT Compound, […], 4583) embedded and 20 μm sections were cryostat cut (-12/-14° C.). […] Fluorescence Mounting Medium (Dako, S302380) was used for mounting the sample slides. […]

SMILES: NCC(=O)CCC(=O)O [5-ALA, 5-amino-4-oxopentanoic acid]
- sensitivity to artemisinin cytotoxicity upon 5-ALA [1]: induced artemisinin hypersensitivity to artemisinin cytotoxicity
- sensitivity to artemisinin under combinatorial treatment with 5-ALA [2]: gained hypersensitive to artemisinin
- mitochondrial polarisation (ΔΨm, JC-1) [3]: increased mitochondrial polarisation
- ROS levels (DHE staining, MFI) [4]: triggered ROS
- GFP+ tumor tissue, immunohistochemistry of sectioned organoids [5]: losss of GFP+ tumor tissue
- effect on non-transformed neuronal tissues in the cerebral organoids ([5]; Sox2 expressing cells, rosette-like structures): no apparent effect on the non-transformed neuronal tissues
- growth of GFP-positive tumor organoids ([5]; very high concentrations, compound alone): notable growth inhibition
